Data taken from US5723496A, “Method for prevention and treatment of harmful effects of intracellular acidosis” (priority 1995, dated 1998).
Several values for one entry are separate records, joined by “and”; a condition that tells them apart may be missing. Identical values can stand only once. Entries after “also recorded” stand apart in the source; their conditions may differ.

Experiments:
[1] = cited from earlier work
[2] = tested on: brains of newborn rat pups; assay: brain intracellular pH and lactate of rat pups before and after 7.5 min anoxia (in vivo NMR); design: species or system Sprague-Dawley rats
Description: A Nicolet NMR System NT-200 (4.7T) was used for NMR experiments. Mice, rats or pups (Sprague-Dawley) were lightly anesthetized with ketamine hydrochloride, 50 mg/kg I.P., and placed in the NMR probe which contained an oval surface coil (one turn, 8×12 mm diameter) tunable to the resonance frequency of the proton and ^31 P. To eliminate signal contamination, scalp and temporal muscle were retracted. Field homogeneity was maximized by skimming on water proton signals. To produce anoxia, 100% nitrogen gas was rapidly infused (14 l/min) into the probe chamber. Anoxia could be reversed by infusion of air. Calibration studies using an oxygen meter (OM-1 Biological oxygen Meter, Micro-electrodes, Inc.) confirmed that this technique produced complete O2 depletion in the chamber or its reversal within 1 minute. ^1 H spectra were obtained at 199.97 MHz=z using a 1331-.tau.-2662 spin echo sequence with a .tau. delay of 68 ms (spectral width: 2 KHz, memory block: 4K, recycle time 2.7 seconds). The interpulse delay of the Hore sequence was adjusted so that the lactate resonance experienced least attenuation. ^31 P spectra were obtained at 80.99 MHz using a one pulse sequence (spectral width: 6 KHz, memory block: 4K, recycle time 2.7 seconds). The free induction decay (FID) like signals from remaining water proton signals were eliminated by applying sine function […]. The broad resonance with short T2 on ^31 P NMR spectra was removed using the convolution difference technique. Line broadening of 5 Hz and 30 Hz were applied as noise filter for proton and ^31 P spectra, respectively.
These animals were designated to be the experimental group. Physiological saline was administered to the control group of rats. Each group consisted of 10 animals.
On the last day of the administration, i.e. at day 10, the animals were each fixed in a special chamber set within a 4.7 T nuclear magnetic resonance apparatus. […]
The pH level and the lactate concentration in the cerebral cells before and after anoxia were measured by nuclear magnetic resonance spectroscopy using the procedure described above.

[3] = tested on: adult mice exposed to anoxia; assay: survival of adult mice exposed to anoxia; assay type: in vivo, Adult Swiss mice; design: mortality, 2.5 minutes of anoxia / protection against 2.5 minutes anoxia: concentration or dose not given beside the values
Description: Adult Swiss mice (BK-1 males, 20 g) purchased from Bantin & Kingman, Fremont, Calif. were used. Each batch consisted of 10 mice. Within each batch five mice were selected randomly as experimental animals and the remaining five as controls. Experimental mice received daily intraperitoneal injections of 0.25 ml of GES (50 mg/ml) for 14 days.
At day 14, all mice within the same batch (5 experimental and 5 each of the […]) were placed in a specially designed chamber (26.5×24.5×21.0 cm). Anoxia/hypoxia was produced by infusion of pure nitrogen gas ([…]) into the chamber for 2.5 or 2.75 minutes. Anoxia/hypoxia was reversed immediately after these intervals by removing the chamber and placing the mice in a room air environment.
The results are shown in FIG. 1 and discussed in detail above.

[4] = design: species or system Adult Swiss mice; conditions: mouse, in vivo
Description: (§1) Adult Swiss mice (BK-1 male 20 g) purchased from Bantin & Kingman, Fremont, Calif., were used. Each batch consisted of 15 mice. Within each batch, five mice were selected randomly to be in the GES, taurine, or control group. A taurine group was included to serve as additional control.
Arterial blood gas sample was collected by puncture of the lower portion of the descending aorta under pentobarbital anesthesia. Analysis was performed on a Corning 168 Blood Gas Analyzer.

[5] = tested on: anaerobic glycolysis; assay: brain lactate after 2.5 min anoxia; assay type: in vivo, Adult Swiss mice
Description: as §1
Brain lactate levels were determined for mice exposed to 2.5 minutes of anoxia as follows. Animals were exposed to 2.5 minutes of anoxia under pentobarbital anesthesia. Immediately after the exposure, animals were immersed into a liquid nitrogen. The frozen brains were removed by chiseling and extracted as described above. Lactate concentration was determined using the lactate dehydrogenase reaction.

[6] = observation of behavior and respiratory pattern; assay type: in vivo, Adult Swiss mice; conditions: mouse, in vivo, ip
Excerpt: as §1

[7] = in vivo; cited from earlier work

Compound | pKa value [1] | effect on pH depression in anoxia (in words) [2] | brain pH after anoxia ([2]; taurine 16 mmol/kg/day i.p., after 7.5 min anoxia) | brain pH before anoxia ([2]; taurine 16 mmol/kg/day i.p., day 10) | protection against anoxia / survival (in words) [3] | mortality, 2.5 minutes of anoxia ([3]; 14 days i.p. pretreatment) | protection against 2.5 minutes anoxia ([3]; FIG. 1) [%] | arterial pCO2 [4] [mmHg] | arterial pH [4] | arterial pO2 [4] [mmHg] | Lactate ([5]; Table 4, n = 5, post 2.5 min anoxia) [mM] | lactate levels post 2.5 min anoxia (in words) ([5]; among three groups) | observable adverse effects in behavior or respiratory pattern [6] | blood-brain barrier crossing (in words) [7]
O=S(=O)(O)CCN1CCOCC1 [MES, 2-(N-morpholino) ethane sulfonic acid, reference compound] | 6.1 |  |  |  |  |  |  |  |  |  |  |  |  | 
Nc1ncnc2c1ncn2[C@@H]1O[C@H](COP(=O)(O)OP(=O)(O)OP(=O)(O)O)[C@@H](O)[C@H]1O [adenosine triphosphate (ATP), adenosine triphosphate] | 6.95 |  |  |  |  |  |  |  |  |  |  |  |  | 
NCCS(=O)(=O)O [taurine, 2-amineethanesulfonic acid, reference compound] |  | pH depression is considerably prevented | 7.0 | 7.3 | no difference between taurine pretreated animals (column B) and saline pretreated animal | 40% and 60% | 40 | 41.26 ± 5.39 | 7.26 ± 0.04 | 97.7 ± 12.9 | 0.48 ± 0.08 | essentially identical among the three groups | did not show any observable adverse effects | does not cross the blood-brain barrier in adult mice; also recorded: does not cross the blood brain barrier freely in the adult mouse; also recorded: does cross the blood-brain barrier in newborns but it has no such effect in the adults
